Reference: US20070037788A1, “Tricyclic steroid hormone nuclear receptor modulators” (Eli Lilly and Company, priority 2003, published 2007)

What follows are molecules tested against T1, human MR (Homo sapiens, UniProt P08235) (assay: Mineralocorticoid Receptor Binding Assay (Method 1)). Settings: [3H]-aldosterone.
T1 construct: The full length human MR gene is cloned from a human kidney or human brain cDNA library; made in house; host or cells: SF9 insect cells (baculovirus)
T1 sequence (P08235 1-984): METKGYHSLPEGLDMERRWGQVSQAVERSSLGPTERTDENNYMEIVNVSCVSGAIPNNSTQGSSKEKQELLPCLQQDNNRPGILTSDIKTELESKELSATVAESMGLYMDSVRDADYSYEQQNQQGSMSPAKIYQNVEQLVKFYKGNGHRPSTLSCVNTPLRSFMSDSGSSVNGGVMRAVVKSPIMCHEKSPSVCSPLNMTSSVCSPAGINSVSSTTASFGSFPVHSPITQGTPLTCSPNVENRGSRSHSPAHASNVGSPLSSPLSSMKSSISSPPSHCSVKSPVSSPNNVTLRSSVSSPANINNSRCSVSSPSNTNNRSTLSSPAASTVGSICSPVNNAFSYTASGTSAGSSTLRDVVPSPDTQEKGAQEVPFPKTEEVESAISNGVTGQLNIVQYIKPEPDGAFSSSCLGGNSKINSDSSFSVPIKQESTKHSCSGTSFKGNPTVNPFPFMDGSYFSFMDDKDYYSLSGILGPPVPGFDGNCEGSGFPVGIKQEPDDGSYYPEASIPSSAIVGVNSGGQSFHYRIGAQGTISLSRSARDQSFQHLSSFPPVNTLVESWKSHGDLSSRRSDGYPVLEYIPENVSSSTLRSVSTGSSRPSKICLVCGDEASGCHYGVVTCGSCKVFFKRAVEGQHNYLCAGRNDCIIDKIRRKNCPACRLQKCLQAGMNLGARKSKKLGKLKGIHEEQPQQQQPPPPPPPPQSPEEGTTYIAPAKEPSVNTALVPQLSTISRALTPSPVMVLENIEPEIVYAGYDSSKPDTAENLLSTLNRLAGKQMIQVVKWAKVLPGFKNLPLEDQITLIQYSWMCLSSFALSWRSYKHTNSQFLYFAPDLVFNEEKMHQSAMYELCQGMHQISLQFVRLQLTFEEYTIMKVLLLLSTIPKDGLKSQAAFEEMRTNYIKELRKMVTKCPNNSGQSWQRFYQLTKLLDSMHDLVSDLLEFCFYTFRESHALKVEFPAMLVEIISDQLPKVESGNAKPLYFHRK
Experimental: The full length human MR gene is cloned from a human kidney or human brain cDNA library. Briefly, using synthetic oligonucleotide primers (Eli Lilly and Company, Indianapolis) directed to nucleotides 20-54 and 3700-3666 of the human MR, polymerase chain reaction (PCR) is performed under standard conditions using a human cDNA library. The PCR reaction is performed in a final volume of 50 μl containing about 1 μl of a 50× stock solution of polymerase; about 1 μl of a 50× stock solution of DNTP; about 5 μl of an appropriate PCR buffer; about 1 μl of each primer; about 5 μl of a H. kidney or H. brain cDNA library; and about 36 μl of water. The reaction is allowed to denature for about 30 seconds at 95 degrees Celsius, anneal for about 30 seconds at 55 degrees Celsius, and extend for about 5 minutes at 72 degrees Celsius, the sequence being repeated for a total of about 35 cycles. The desired PCR product (3.68 Kb) is confirmed by gel electrophoresis and subsequently cut from the gel and stored at about −20 degrees Celsius until extraction. To extract the cDNA product from the agarose gel, the QIAEX II Gel Extraction protocol (QIAGEN, Inc.) is employed according to the manufacturer's instructions. Following extraction, the MR cDNA is cloned into an appropriate cloning vector (Zero Blunt TOPO PCR Cloning Kit (Invitrogen, Inc.) and a pAcHLT-baculovirus transfer vector (B.D./Pharminogen), then expressed in SF9 insect cells, essentially according to manufacturer's instructions. Sf9 cells are grown at a scale where gram quantity cell pellets are obtained for subsequent use in the MR binding assay. Harvested cell pellets are lysed by repeated freeze-thaw cycles (about 4) in a suitable lysis buffer then centrifuged at about 1×10^3 G (with the supernatant being saved for future assays).
MR binding assays are performed in a final total volume of about 250 μl containing about 20-25 μg of protein and 0.5 nM of [^3H]-aldosterone plus varying concentrations of test compound or vehicle. The assay binding buffer consists of 30 mM sodium molybdate, 30 mM of TRIS-HCl, 5 mM sodium phosphate, 5 mM sodium pyrophosphate, and about 10% glycerol, pH=7.5.
Briefly, assays are prepared at RT in 96-well Falcon 3072 plates, each well containing 210 μl of binding buffer, 10 μl of [^3H]-aldosterone, 10 μl of test compound/vehicle, and 20 μl of the resuspended receptor protein extract. Incubations are carried out at 4 degrees Celsius with shaking for about 16 hours. 200 μl aliquots of each incubation are filtered onto Millipore HA 0.45 micron 96-well filter plates, pre-moistened with cold 30 mM TRIS-HCl. The filter plates are suctioned dry with vacuum and immediately washed 3× with cold 30 mM TRIS-HCl. The plates are then punched out and the amount of receptor-ligand complex is determined by liquid scintillation counting using 4 ml of Ready Protein Plus™ liquid scintillation cocktail.

Ki, < 500 nM:
CCN1CC[C@H](n2c(=O)[nH]c3cc(/C=C4/c5ccc(F)cc5OCc5c(F)cccc54)ccc32)C1 [Example 44]
CN1CC[C@H](n2c(=O)[nH]c3cc(/C=C4/c5ccc(F)cc5OCc5c(F)cccc54)ccc32)C1 [Example 45]
CCN1CC[C@@H](n2c(=O)[nH]c3cc(/C=C4/c5ccc(F)cc5OCc5c(F)cccc54)ccc32)C1 [Example 46]
